In paper PMC10885410, “Mining and functional characterization of NADPH-cytochrome P450 reductases of the DNJ biosynthetic pathway in mulberry leaves” (BMC Plant Biology, 2024):

How the values were obtained:
MaC3'H-MaCPR2 = target: T1, MaC3'H-MaCPR2 (Morus alba, UniProt A0A5P9L9Q5); experiment: yeast feeding, product by HPLC and LC-MS; format: cell-based; details: 100 μM fed to yeast culture, 48 h, 30 °C; needs co-expressed MaCPR2
T1 construct: full ORFs of MaC3'H and MaCPR2 (715 aa) co-expressed from pESC-Trp (GAL1/GAL10) in Saccharomyces cerevisiae INVSc1; with NADPH--cytochrome P450 reductase
T1 sequence (A0A5P9L9Q5 1-509): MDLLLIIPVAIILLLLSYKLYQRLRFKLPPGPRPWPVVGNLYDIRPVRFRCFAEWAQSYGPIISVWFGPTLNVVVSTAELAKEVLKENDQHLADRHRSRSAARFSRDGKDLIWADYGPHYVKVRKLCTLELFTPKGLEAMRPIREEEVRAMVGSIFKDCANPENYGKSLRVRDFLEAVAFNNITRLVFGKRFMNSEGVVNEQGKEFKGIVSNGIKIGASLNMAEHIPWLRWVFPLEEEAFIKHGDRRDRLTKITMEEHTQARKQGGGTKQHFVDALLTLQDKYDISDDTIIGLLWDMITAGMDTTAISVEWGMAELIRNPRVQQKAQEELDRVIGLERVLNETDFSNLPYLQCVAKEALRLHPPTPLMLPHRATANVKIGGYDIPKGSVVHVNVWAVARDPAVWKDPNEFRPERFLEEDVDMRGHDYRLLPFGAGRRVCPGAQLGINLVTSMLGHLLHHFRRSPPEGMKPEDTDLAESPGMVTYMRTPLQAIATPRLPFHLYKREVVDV

[1] = test system: NC(=O)C1=CN([C@@H]2O[C@H](COP(=O)(O)OP(=O)(O)OC[C@H]3O[C@@H](n4cnc5c(N)ncnc54)[C@H](OP(=O)(O)O)[C@@H]3O)[C@@H](O)[C@H]2O)C=CC1; experiment: purified protein; details: cytochrome c 200 μM, 50 mM Tris-HCl pH 7.4, 0.1 mM EDTA, 25 °C, varied: cofactor

| Compound | yeast feeding, product by HPLC and LC-MS (MaC3'H-MaCPR2) | Km [1] | Vmax [1] |
| --- | --- | --- | --- |
| O=C(/C=C/c1ccc(O)cc1)O[C@@H]1C[C@](O)(C(=O)O)C[C@@H](O)[C@H]1O [3-O-p-coumaroylquinic acid] | transfers electrons to MaC3'H hydroxylase, thus transforming 3-O-p-coumaroylquinic acid into chlorogenic acid | – | – |
| O=C(/C=C/c1ccc(O)c(O)c1)O[C@@H]1C[C@](O)(C(=O)O)C[C@@H](O)[C@H]1O [chlorogenic acid] | expected product chlorogenic acid was detected in MaC3'H-MaCPR2/pESC-Trp/INVSCI engineered bacteria | – | – |
| MaCPR2 (Morus alba) | – | 13.93 ± 1.54 µM | 2.43 µmol/min/mg |
